These are literature values, as cited in patent US20250295648A1 (priority 2024, published 2025).

The subject of this series is Parkinson's patients with troublesome L-DOPA-induced dyskinesia. The settings on record: cited from earlier work.

`Fc1ccc(-c2cncc(CNC[C@H]3CCc4ccccc4O3)c2)cc1` [sarizotan]: the “effect on L-DOPA efficacy” value (phase 2b study, Goetz 2007) is “two of the three tested doses significantly reduced L-DOPA efficacy”. Where the note is “third (lowest) dose, two phase 3 trials”, the “reduction of LID” value is listed as “ineffective in reducing LID”.
